Laboratory results reported in US6358885B1, “Substituted phenylheterocyclic herbicides” (Mississippi State University, priority 1992, dated 2002).

How the values were obtained:
[1] = system: bedstraw; assay: Test B preemergence/postemergence greenhouse plant response rating 0 to 10; format: in vivo, Galium aparine; conditions: for Plant response rating, Bedstraw: 0 to 10 scale
In short: (§1)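 Test chemicals were sprayed onto freshly planted seed and, concurrently, onto young plants between the one and four leaf stage. After a twelve- to sixteen-day greenhouse period, each species was visually compared with untreated controls.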

[2] = system: blackgrass; assay: as above; format: in vivo, Alopecurus myosuroides; conditions: for Plant response rating, Blackgrass: POSTEMERGENCE, 0 to 10 scale
In short: as §1

[3] = system: cocklebur; assay: as above; format: in vivo, Xanthium pensylvanicum; conditions: for Plant response rating, Cocklebur: 0 to 10 scale
In short: as §1

[4] = system: morningglory; assay: as above; format: in vivo, Ipomoea hederacea; conditions: for Plant response rating, Morningglory: 0 to 10 scale
In short: as §1

[5] = system: sugar beet; assay: as above; format: in vivo, Beta vulgaris; conditions: for Plant response rating, Sugar beet: 0 to 10 scale
In short: as §1

[6] = system: wild oat; assay: as above; format: in vivo, Avena fatua; conditions: for Plant response rating, Wild oat: 0 to 10 scale
In short: as §1

[7] = system: blackgrass; assay: Test C preemergence/postemergence greenhouse plant response rating 0 to 100; format: in vivo, Alopecurus myosuroides; conditions: for Plant response rating, Blackgrass: 0 to 100 scale
In short: (§2)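 Compounds in non-phytotoxic solvent went onto sandy loam before emergence (seeded one day earlier) or onto plants at the one-to-four leaf stage. Duck salad was treated via flood water (~2.5 cm, maintained) over silt loam.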

[8] = system: cotton; assay: as above; format: in vivo, Gossypium hirsutum; conditions: for Plant response rating, Cotton: 0 to 100 scale
In short: as §2

[9] = system: pigweed; assay: as above; format: in vivo, Amaranthusretroflexus; conditions: for Plant response rating Pigweed: 0 to 100 scale
In short: as §2

[10] = system: ryegrass; assay: as above; format: in vivo, Lolium multiflorum; conditions: for Plant response rating Ryegrass: 0 to 100 scale
In short: as §2

[11] = system: wheat; assay: as above; format: in vivo, Triticum aestivum; conditions: for Plant response rating, Wheat: 0 to 100 scale
In short: as §2

[12] = system: barnyardgrass; assay: Test C flood test plant response rating 0 to 100; format: in vivo, Echinochloa crus-galli; conditions: for Plant response rating Barnyardgrass 2: flood test species listed under POSTEMERGENCE, 0 to 100 scale
In short: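 Compounds in non-phytotoxic solvent applied preemergence to sandy loam one day after planting, postemergence at the 1–4 leaf stage, or to ~2.5 cm floodwater over silt loam.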

Q: `C#CC(C)Oc1cc(-c2nn3c(c2Br)CCCC3)c(F)cc1Cl` (stereo not drawn) [Compound 66] was tested. Which “Plant response rating, Bedstraw” value ([1]; POSTEMERGENCE, Rate 50 g/ha) did it give?
A: 10

Q: And the “Plant response rating, Bedstraw” value ([1]; PREEMERGENCE, Rate 50 g/ha)?
A: 9

Q: What about the “Plant response rating (0 to 10 scale), Bedstraw” value ([1]; PREEMERGENCE, Rate 200 g/ha) of the same molecule?
A: 10

Q: What about the “Plant response rating, Bedstraw” value ([1]; Rate 200 g/ha, POSTEMERGENCE) of the same molecule?
A: 10

Q: And the “Plant response rating, Blackgrass” value ([2]; Rate 50 g/ha)?
A: 4

Q: And the “Plant response rating (0 to 10 scale), Blackgrass” value ([2]; PREEMERGENCE, Rate 200 g/ha)?
A: 7

Q: What about the “Plant response rating, Blackgrass” value ([2]; Rate 200 g/ha) of the same molecule?
A: 6

Q: And the “Plant response rating, Cocklebur” value ([3]; POSTEMERGENCE, Rate 50 g/ha)?
A: 9

Q: And the “Plant response rating, Cocklebur” value ([3]; PREEMERGENCE, Rate 50 g/ha)?
A: 0

Q: What about the “Plant response rating (0 to 10 scale), Cocklebur” value ([3]; PREEMERGENCE, Rate 200 g/ha) of the same molecule?
A: 0

Q: And the “Plant response rating, Cocklebur” value ([3]; Rate 200 g/ha, POSTEMERGENCE)?
A: 10

Q: And the “Plant response rating, Morningglory” value ([4]; POSTEMERGENCE, Rate 50 g/ha)?
A: 10

Q: What about the “Plant response rating, Morningglory” value ([4]; PREEMERGENCE, Rate 50 g/ha) of the same molecule?
A: 0

Q: What about the “Plant response rating (0 to 10 scale), Morningglory” value ([4]; PREEMERGENCE, Rate 200 g/ha) of the same molecule?
A: 2

Q: And the “Plant response rating, Morningglory” value ([4]; Rate 200 g/ha, POSTEMERGENCE)?
A: 10

Q: What about the “Plant response rating, Sugar beet” value ([5]; POSTEMERGENCE, Rate 50 g/ha) of the same molecule?
A: 10

Q: What about the “Plant response rating, Sugar beet” value ([5]; PREEMERGENCE, Rate 50 g/ha) of the same molecule?
A: 8

Q: And the “Plant response rating (0 to 10 scale), Sugar beet” value ([5]; PREEMERGENCE, Rate 200 g/ha)?
A: 10

Q: What about the “Plant response rating, Sugar beet” value ([5]; Rate 200 g/ha, POSTEMERGENCE) of the same molecule?
A: 10

Q: What about the “Plant response rating, Wild oat” value ([6]; POSTEMERGENCE, Rate 50 g/ha) of the same molecule?
A: 5

Q: What about the “Plant response rating, Wild oat” value ([6]; PREEMERGENCE, Rate 50 g/ha) of the same molecule?
A: 2

Q: What about the “Plant response rating (0 to 10 scale), Wild oat” value ([6]; PREEMERGENCE, Rate 200 g/ha) of the same molecule?
A: 5

Q: What about the “Plant response rating, Wild oat” value ([6]; Rate 200 g/ha, POSTEMERGENCE) of the same molecule?
A: 6

Q: What about the “Plant response rating, Blackgrass” value ([7]; POSTEMERGENCE, 62 g/ha) of the same molecule?
A: 60

Q: And the “Plant response rating, Blackgrass” value ([7]; POSTEMERGENCE, 250 g/ha)?
A: 80

Q: What about the “Plant response rating (0 to 100), Blackgrass” value ([7]; POSTEMERGENCE, Rate 4 g/ha) of the same molecule?
A: 20

Q: And the “Plant response rating, Blackgrass” value ([7]; PREEMERGENCE, 62 g/ha)?
A: 70

Q: And the “Plant response rating, Blackgrass” value ([7]; PREEMERGENCE, 250 g/ha)?
A: 70

Q: What about the “Plant response rating (0 to 100), Blackgrass” value ([7]; PREEMERGENCE, Rate 4 g/ha) of the same molecule?
A: 0

Q: What about the “Plant response rating (0 to 100), Blackgrass” value ([7]; Rate 16 g/ha, POSTEMERGENCE) of the same molecule?
A: 40

Q: And the “Plant response rating (0 to 100), Blackgrass” value ([7]; Rate 16 g/ha, PREEMERGENCE)?
A: 20

Q: And the “Plant response rating, Cotton” value ([8]; POSTEMERGENCE, 62 g/ha)?
A: 100

Q: And the “Plant response rating, Cotton” value ([8]; POSTEMERGENCE, 250 g/ha)?
A: 100

Q: What about the “Plant response rating (0 to 100), Cotton” value ([8]; POSTEMERGENCE, Rate 4 g/ha) of the same molecule?
A: 70

Q: What about the “Plant response rating, Cotton” value ([8]; PREEMERGENCE, 62 g/ha) of the same molecule?
A: 40

Q: What about the “Plant response rating, Cotton” value ([8]; PREEMERGENCE, 250 g/ha) of the same molecule?
A: 90

Q: What about the “Plant response rating (0 to 100), Cotton” value ([8]; PREEMERGENCE, Rate 4 g/ha) of the same molecule?
A: 0

Q: What about the “Plant response rating (0 to 100), Cotton” value ([8]; Rate 16 g/ha, POSTEMERGENCE) of the same molecule?
A: 85

Q: What about the “Plant response rating (0 to 100), Cotton” value ([8]; Rate 16 g/ha, PREEMERGENCE) of the same molecule?
A: 0

Q: And the “Plant response rating Pigweed” value ([9]; POSTEMERGENCE, 62 g/ha)?
A: 100

Q: What about the “Plant response rating Pigweed” value ([9]; POSTEMERGENCE, 250 g/ha) of the same molecule?
A: 100

Q: What about the “Plant response rating (0 to 100), Pigweed” value ([9]; POSTEMERGENCE, Rate 4 g/ha) of the same molecule?
A: 30

Q: What about the “Plant response rating Pigweed” value ([9]; PREEMERGENCE, 62 g/ha) of the same molecule?
A: 100

Q: What about the “Plant response rating Pigweed” value ([9]; PREEMERGENCE, 250 g/ha) of the same molecule?
A: 100

Q: And the “Plant response rating (0 to 100), Pigweed” value ([9]; PREEMERGENCE, Rate 4 g/ha)?
A: 0

Q: And the “Plant response rating (0 to 100), Pigweed” value ([9]; Rate 16 g/ha, POSTEMERGENCE)?
A: 100

Q: And the “Plant response rating (0 to 100), Pigweed” value ([9]; Rate 16 g/ha, PREEMERGENCE)?
A: 90

Q: And the “Plant response rating Ryegrass” value ([10]; POSTEMERGENCE, 62 g/ha)?
A: 50

Q: And the “Plant response rating Ryegrass” value ([10]; POSTEMERGENCE, 250 g/ha)?
A: 75

Q: And the “Plant response rating (0 to 100), Ryegrass” value ([10]; POSTEMERGENCE, Rate 4 g/ha)?
A: 10

Q: What about the “Plant response rating Ryegrass” value ([10]; PREEMERGENCE, 62 g/ha) of the same molecule?
A: 50

Q: And the “Plant response rating Ryegrass” value ([10]; PREEMERGENCE, 250 g/ha)?
A: 70

Q: And the “Plant response rating (0 to 100), Ryegrass” value ([10]; PREEMERGENCE, Rate 4 g/ha)?
A: 0

Q: What about the “Plant response rating (0 to 100), Ryegrass” value ([10]; Rate 16 g/ha, POSTEMERGENCE) of the same molecule?
A: 30

Q: And the “Plant response rating (0 to 100), Ryegrass” value ([10]; Rate 16 g/ha, PREEMERGENCE)?
A: 20

Q: What about the “Plant response rating, Wheat” value ([11]; POSTEMERGENCE, 62 g/ha) of the same molecule?
A: 60

Q: And the “Plant response rating, Wheat” value ([11]; POSTEMERGENCE, 250 g/ha)?
A: 70

Q: And the “Plant response rating (0 to 100), Wheat” value ([11]; POSTEMERGENCE, Rate 4 g/ha)?
A: 20

Q: What about the “Plant response rating, Wheat” value ([11]; PREEMERGENCE, 250 g/ha) of the same molecule?
A: 70

Q: What about the “Plant response rating (0 to 100), Wheat” value ([11]; PREEMERGENCE, Rate 4 g/ha) of the same molecule?
A: 0

Q: And the “Plant response rating (0 to 100), Wheat” value ([11]; Rate 16 g/ha, POSTEMERGENCE)?
A: 40

Q: And the “Plant response rating (0 to 100), Wheat” value ([11]; Rate 16 g/ha, PREEMERGENCE)?
A: 0

Q: What about the “Plant response rating (0 to 100), Barnyardgrass 2” value ([12]; POSTEMERGENCE section, flood test, Rate 4 g/ha) of the same molecule?
A: 10

Q: What about the “Plant response rating (0 to 100), Barnyardgrass 2” value ([12]; Rate 16 g/ha, under POSTEMERGENCE head (flood test species)) of the same molecule?
A: 90

Q: And the “Plant response rating Barnyardgrass 2” value ([12]; 62 g/ha)?
A: 100

Q: What about the “Plant response rating Barnyardgrass 2” value ([12]; 250 g/ha) of the same molecule?
A: 100
